Data as given in the RepoRT retention time repository (doi:10.1021/acs.analchem.2c02893).

Key:
Settings in all cases: stereoisomer not certain
[1] = RP, Thermo Scientific Acclaim RSLC 120 C18, 100 × 2.1 mm, 2.2 µm, 30 °C, 0.2 mL/min, estimated dead time 1.1 min; A: water + 0.1% formic acid, pH 2.6; B: methanol + 0.1% formic acid, pH 2.6; gradient (min/%B) 0/10 4/50 17/95 25/95 25.1/10 30/10
[2] = RP, Waters ACQUITY UPLC BEH C18, 100 × 2.1 mm, 1.7 µm, 30 °C, 0.35 mL/min, estimated dead time 0.63 min; A: water + 0.01% formic acid + 5 mM ammonium formate, pH 3.71; B: acetonitrile + 0.01% formic acid, pH 3.71; gradient (min/%B) 0/10 3/10 22/100 30/100 30.1/10 40/10
[3] = RP, Waters ACQUITY UPLC BEH C18, 100 × 2.1 mm, 1.7 µm, 35 °C, 0.35 mL/min, estimated dead time 0.63 min; A: water + 0.01% formic acid + 5 mM ammonium formate, pH 3.71; B: acetonitrile + 0.01% formic acid, pH 3.71; gradient (min/%B) 0/5 0.5/5 16/95 16.1/99 19/99 19.1/5 21/5
[4] = RP, Thermo Scientific Acclaim RSLC 120 C18, 100 × 2.1 mm, 2.2 µm, 30 °C, 0.2 mL/min, estimated dead time 1.1 min; A: 90% water + 10% methanol + 0.01% formic acid + 5 mM ammonium formate, pH 3.61; B: methanol + 0.01% formic acid + 5 mM ammonium formate, pH 3.61; gradient (min/%B) 0/1 1/1 2/39 13/99.9 15/99.9 15.1/1 20.1/1

Row | SMILES | LC retention time [1] | LC retention time [2] | LC retention time [3] | LC retention time [4]
1 | C1=CCC(c2cccnc2)NC1 (centres undefined) [Anatabine] | 3.66 min | 1.08 min | 1.27 min | 2.68 min
2 | CC1CCc2cc(F)cc3c(=O)c(C(=O)O)cn1c23 (centres undefined) [Flumequine] | 8.57 min | 9.84 min | 7.28 min | 7.46 min
3 | NC1Cc2cc3c(cc2C1)OCO3 [MDAI] | 3.47 min | 2.34 min | 2.95 min | 3.81 min
4 | CN1CCC23c4c5ccc(O)c4OC2C(O)C=CC3C1C5 (centres undefined) [Morphine (MOR)] | 2.11 min | 1.21 min | 1.47 min | 2.54 min
5 | COP(=O)(OC)C(O)C(Cl)(Cl)Cl (centres undefined) [Trichlorfon] | 5.86 min | 5.41 min | 4.26 min | 
6 | COC(=O)Nc1nc2ccc(Sc3ccccc3)cc2[nH]1 [Fenbendazole] | 10.9 min | 12.2 min | 9.17 min | 10.3 min
7 | COc1ccc(Cc2cnc(N)nc2N)cc1OC [Diaveridine] | 3.67 min | 3.36 min | 3.48 min | 3.88 min
8 | Nc1nnc(-c2cccc(Cl)c2Cl)c(N)n1 [Lamotrigine] | 5.17 min | 6.41 min | 4.66 min | 5.31 min
9 | CCC(C)C1OC2(CCC1C)CC1CC(CC=C(C)C(OC3CC(OC)C(OC4CC(OC)C(O)C(C)O4)C(C)O3)C(C)C=CC=C3COC4C(O)C(C)=CC(C(=O)O1)C34O)O2 (centres undefined) [Ivermectin] | 20.4 min | 21.1 min | 17 min | 
10 | CCNCC(=O)Nc1c(C)cccc1C [Lidocaine-Nor] | 3.97 min | 3.59 min | 3.56 min | 4.33 min
11 | COCC(NC(C)=O)C(=O)NCc1ccccc1 (centres undefined) [Lacosamide] | 5.79 min | 5.76 min | 4.46 min | 5.09 min
12 | CC(=O)Nc1ccc(S(=O)(=O)Nc2nc(C)cc(C)n2)cc1 [Sulfamethazine-N4-Acetyl] | 5.06 min | 5.03 min | 4.03 min | 4.59 min
13 | CCCCOc1ccc(CC(=O)NO)cc1 [Bufexamac] | 9.38 min | 9.74 min | 7.21 min | 7.83 min
14 | CC(C)Cc1ccc(C(C)C(=O)O)cc1 (centres undefined) [Ibuprofen] | 13.1 min | 14 min | 10.7 min | 10.7 min
15 | COCCc1ccc(OCC(O)CNC(C)C)cc1 (centres undefined) [Metoprolol] | 4.94 min | 6.53 min | 4.79 min | 4.93 min
16 | C#CCN(C)C(C)Cc1ccccc1 (centres undefined) [Deprenyl/Selegiline] | 4.32 min | 5.98 min | 4.53 min | 
17 | COC(=O)c1ccccc1C(=O)OC [Phthalate-Dimethyl] | 7.52 min | 9.38 min | 7.03 min | 6.63 min
18 | CN1C(=O)CCC1c1cccnc1 (centres undefined) [Cotinine] | 1.71 min | 1.41 min | 2.06 min | 3.75 min
19 | NCCc1cnc[nH]1 [Histamine] |  | 0.99 min | 0.94 min | 1.58 min
20 | NC(=O)c1ccccc1Oc1ccccc1 [Phenoxybenzamide] | 9.15 min | 11.5 min | 8.66 min | 7.79 min

Row | SMILES | LC retention time [1] | LC retention time [2] | LC retention time [3] | LC retention time [4]
21 | CCOC(=O)c1ccccc1C(=O)OCC [Phthalate-Diethyl] | 10.2 min | 12.2 min | 9.21 min | 8.5 min
22 | CCOc1ccc(NC(C)=O)cc1 [Phenacetin] | 6.82 min | 7.53 min | 5.58 min | 5.93 min
23 | CC(C)NCC(O)c1ccc(N)c(C#N)c1 (centres undefined) [Cimaterol] | 2.51 min | 1.48 min | 2.1 min | 2.99 min
24 | CC12CC3CC(C)(C1)CC(N)(C3)C2 [Memantine] | 6.63 min | 8.04 min | 5.86 min | 6.91 min
25 | CCOP(=O)(OCC)OCC [Phosphate-triethyl] | 6.94 min | 7.31 min | 5.48 min | 6.16 min
26 | O=c1[nH]c2ccccc2s1 [Benzothiazole-2-OH] | 7.4 min | 7.78 min | 5.76 min | 
27 | CCNC(C)Cc1cccc(C(F)(F)F)c1 (centres undefined) [Fenfluramine] | 5.84 min | 8.46 min | 6.21 min | 
28 | NC(=O)N=C(N)N [Guanylurea] |  | 0.83 min | 0.86 min | 
29 | CC12CCC(=O)C=C1CCC1C2CCC2(C)C(O)CCC12 (centres undefined) [Testosterone] | 12.2 min | 11.6 min | 8.76 min | 
30 | NCC(O)c1ccccc1 (centres undefined) [Apophedrin (Phenylethanolamine)] | 2.34 min | 1.38 min | 1.65 min | 
31 | Nc1ncn[nH]1 [Amitrole] |  | 0.91 min | 0.88 min | 1.44 min
32 | c1cc2c(cc1CN1CCNCC1)OCO2 [Piperazine-1-Piperonyl] | 2.56 min | 2.63 min | 3.2 min | 
33 | C[N+](C)(C)CCCl [Chlormequate] |  | 0.84 min | 0.84 min | 
34 | CCC(C)C1OC2(C=CC1C)CC1CC(CC=C(C)C(OC3CC(OC)C(OC4CC(OC)C(NC)C(C)O4)C(C)O3)C(C)C=CC=C3COC4C(O)C(C)=CC(C(=O)O1)C34O)O2 (centres undefined) [Emamectin] | 14.3 min | 16.3 min | 12.6 min | 
35 | CC(C)(C)NCC(O)c1ccc(O)c(CO)c1 (centres undefined) [Albuterol/Salbutamol] | 2.71 min | 1.28 min | 1.92 min | 
36 | CCC(C)C1OC2(C=CC1C)CC1CC(CC=C(C)C(OC3CC(OC)C(OC4CC(OC)C(O)C(C)O4)C(C)O3)C(C)C=CC=C3COC4C(O)C(C)=CC(C(=O)O1)C34O)O2 (centres undefined) [Avermectin] | 18.7 min | 18.8 min | 14.6 min | 
37 | COc1cc(OC)nc(NC(=O)NS(=O)(=O)N(C)S(C)(=O)=O)n1 [Amidosulfuron] |  |  |  | 6.77 min
38 | CN(C)c1ccc(N=Nc2ccccc2)cc1 [Butter yellow] |  |  |  | 12.4 min
39 | COc1ccc(CCN2CCC(Nc3nc4ccccc4n3Cc3ccc(F)cc3)CC2)cc1 [Astemizole] |  |  |  | 8.03 min
40 | COC(=O)N(OC)c1ccccc1COc1ccn(-c2ccc(Cl)cc2)n1 [Pyraclostrobin] |  |  |  | 11.2 min

Row | SMILES | LC retention time [1] | LC retention time [2] | LC retention time [3] | LC retention time [4]
41 | COC1=CC(=O)OC(C=Cc2ccccc2)C1 (centres undefined) [Kavain] |  |  |  | 8.32 min
42 | CN(C)CCC=C1c2ccccc2C=Cc2ccccc21 [Cyclobenzaprine] |  |  |  | 7.95 min
43 | CCCCCn1cc(C(=O)CC(C)(C)C(C)(C)O)c2ccccc21 [HTMPIPO-4] |  |  |  | 11.6 min
44 | Cc1ccccc1N1C(=O)c2cc(S(N)(=O)=O)c(Cl)cc2NC1C (centres undefined) [Metolazone] |  |  |  | 6.08 min
45 | Cn1c(=O)c2c(ncn2CCO)n(C)c1=O [Etofylline] |  |  |  | 4.09 min
46 | CC(Cc1ccccc1)NCCC#N (centres undefined) [Fenproporex (NARL)] |  |  |  | 4.14 min
47 | C=CC1(C)CC(OC(=O)CSCCN(CC)CC)C2(C)C(C)CCC3(CCC(=O)C32)C(C)C1O (centres undefined) [Tiamulin] |  |  |  | 7.71 min
48 | Cc1cc(C(C)(C)C)cc(C)c1CC1=NCCN1 [Xylometazoline] |  |  |  | 7.75 min
49 | CC(C)N(C(=O)C(=O)O)c1ccccc1 [Propachlor-OXA] |  |  |  | 5.13 min
50 | CC(C)C(O)(C(=O)OCC1=CC[N+]2([O-])CCC(O)C12)C(C)O (centres undefined) [Lycopsamine-N-oxide] |  |  |  | 3.94 min
51 | Cc1cccc(C)c1N(Cn1cccn1)C(=O)CCl [Metazachlor] |  |  |  | 8.11 min
52 | C=CCOC(=O)C(C)(C)OC(=O)c1cc(-n2c(=O)cc(C(F)(F)F)n(C)c2=O)ccc1Cl [Butafenacil] |  |  |  | 9.89 min
53 | CN(C)CCCN1c2ccccc2Sc2ccc(C(F)(F)F)cc21 [Triflupromazine] |  |  |  | 9.27 min
54 | COC1(C)CC(c2ccccc2)c2c(c3ccccc3oc2=O)O1 (centres undefined) [Pyranocoumarin] |  |  |  | 11.1 min
55 | CNC(=O)C=C(C)OP(=O)(OC)OC [Monocrotophos] |  |  |  | 4.36 min
56 | O=C(O)COc1nc(Cl)c(Cl)cc1Cl [Triclopyr] |  |  |  | 7.85 min
57 | CCSC(=O)N(CC(C)C)CC(C)C [Butylate] |  |  |  | 12 min
58 | O=c1[nH]c(Cl)c(Cl)cc1Cl [3.5.6-Trichloro-2-pyridinol] |  |  |  | 8.96 min
